Experimental data: US6949556B2, “Acylated 1,2,3,4-tetrahydronaphthyl amines and their use as pharmaceutical agents” (Aventis Pharma Deutschland GmbH, priority 2001, dated 2005)

tested on: eNOS promoter; experiment: Activation of eNOS transcription (eNOS promoter firefly luciferase reporter); assay type: cell-based; conditions: EC50 of transcription induction ratio (TIR) vs compound concentration, determined graphically; stably transfected human endothelial cell line, 18 h incubation
Procedure: Activation of eNOS transcription was measured as described in detail in Li et al. “Activation of protein kinase C alpha and/or epsilon enhances transcription of the human endothelial nitric oxide synthase gene”, Mol. Pharmacol. 1998; 53: 630-637. Briefly, a 3.5 kB long fragment 5′ of the starting codon of the eNOS gene was cloned, sequenced and cloned in firefly luciferase expression plasmids to monitor activation of the eNOS promoter by reporter gene activity. A human endothelial cell line stable transfected and expressing this promoter-reporter construct was used for compound testing. Cells were incubated for 18 h with compounds.
All compounds were dissolved in sterile DMSO. A final concentration of 0.5% DMSO in complete medium was allowed. Induction of reporter gene expression in these cells was measured using a standard luciferase assay system (Promega, Cat. No E150) according to the manufacturer's instructions. Luciferase induction in cells incubated with compounds were compared to those incubated with solvent alone. The ratio of both activities (transcription induction ratio, TIR) was plotted as a function of compound concentration. Typically, TIR values started at low concentrations at a ratio of 1, indicating no compound effect, and extended up to a maximum TIR value TIR(max) which indicates the increase of the eNOS transcription. EC50 values of transcription induction ratios as a function of compound concentration were determined graphically.

Row | EC50 [µM] | Compound
1 | 5.93 | O=C(N[C@@H]1CCc2ccccc2C1)c1ccc(Cl)nc1 [Compound 14, 6-Chloro-N-(R)-1,2,3,4-tetrahydro-naphthalen-2-yl-nicotinamide]
2 | 1.96 | Nc1ncccc1C(=O)N[C@@H]1CCc2ccccc2C1 [Compound 17, 2-Amino-N-(R)-1,2,3,4-tetrahydro-naphthalen-2-yl-nicotinamide]
3 | 10.9 | Cc1ccc(C(=O)N[C@@H]2CCc3ccccc3C2)cn1 [Compound 19, 6-Methyl-N-(R)-1,2,3,4-tetrahydro-naphthalen-2-yl-nicotinamide]
4 | 24.7 | Cc1ccc(C(=O)N[C@H]2CCc3ccccc3C2)cn1 [Compound 20, 6-Methyl-N-(S)-1,2,3,4-tetrahydro-naphthalen-2-yl-nicotinamide]
5 | 8.82 | O=C(N[C@H]1CCc2ccccc2C1)c1cccc2[nH]ccc12 [Compound 22, 1H-Indole-4-carboxylic acid-N-(S)-(1,2,3,4-tetrahydro-naphthalen-2-yl)-amide]
6 | 0.18 | Cc1ncccc1C(=O)N[C@@H]1CCc2ccccc2C1 [Compound 27, 2-Methyl-N-(R)-1,2,3,4-tetrahydro-naphthalen-2-yl-nicotinamide]
7 | 14.9 | Cc1cnc(C(=O)N[C@@H]2CCc3ccccc3C2)cn1 [Compound 35, 5-Methyl-pyrazine-2-carboxylic acid N-(R)-(1,2,3,4-tetrahydro-naphthalen-2-yl)-amide]
8 | 0.33 | Cc1cnc(C(=O)N[C@H]2CCc3ccccc3C2)cn1 [Compound 36, 5-Methyl-pyrazine-2-carboxylic acid N-(S)-(1,2,3,4-tetrahydro-naphthalen-2-yl)-amide]
9 | 28.3 | Cc1ccc(C(=O)N[C@@H]2CCc3ccccc3C2)c(Cl)n1 [Compound 39, 2-Chloro-6-methyl-N-(R)-1,2,3,4-tetrahydro-naphthalen-2-yl-nicotinamide]
10 | 13.6 | Cc1ccc(C(=O)N[C@H]2CCc3ccccc3C2)c(Cl)n1 [Compound 40, 2-Chloro-6-methyl-N-(S)-1,2,3,4-tetrahydro-naphthalen-2-yl-nicotinamide]
11 | 16.3 | Cc1nc(C(F)(F)F)ccc1C(=O)N[C@@H]1CCc2ccccc2C1 [Compound 54, 2-Methyl-N-(R)-1,2,3,4-tetrahydro-naphthalen-2-yl-6-trifluoromethyl-nicotinamide]
12 | 1.1 | Cc1nc(C(F)(F)F)ccc1C(=O)N[C@H]1CCc2ccccc2C1 [Compound 55, 2-Methyl-N-(S)-1,2,3,4-tetrahydro-naphthalen-2-yl-6-trifluoromethyl-nicotinamide]
13 | 2.75 | N#Cc1ccc(C(=O)N[C@@H]2CCc3ccccc3C2)cn1 [Compound 56, 6-Cyano-N-(R)-1,2,3,4-tetrahydro-naphthalen-2-yl-nicotinamide]
14 | 0.5 | N#Cc1ccc(C(=O)N[C@H]2CCc3ccccc3C2)cn1 [Compound 57, 6-Cyano-N-(S)-1,2,3,4-tetrahydro-naphthalen-2-yl-nicotinamide]

Further lines, the compound ahead of its results:

Row | Compound | EC50 [µM]
15 | O=C(NC1CCc2ccccc2C1)c1ccc(F)cc1 (centres unmarked) [Compound 1, 4-Fluoro-N-(1,2,3,4-tetrahydro-naphth-2-yl)-benzamide] | 2.2
16 | O=C(N[C@@H]1CCc2cccc(Br)c2C1)c1ccc(F)cc1 [Compound 4, (R)-N-(8-Bromo-1,2,3,4-tetrahydro-naphth-2-yl)-4-fluoro-benzamide] | > 30
17 | O=C(N[C@H]1CCc2cccc(Br)c2C1)c1ccc(F)cc1 [Compound 5, (S)-N-(8-Bromo-1,2,3,4-tetrahydro-naphth-2-yl)-4-fluoro-benzamide] | 10
18 | COc1cccc2c1CC[C@@H](NC(=O)c1ccc(F)cc1)C2 [Compound 6, (R)-N-(5-Methoxy-1,2,3,4-tetrahydro-naphth-2-yl)-4-fluoro-benzamide] | 1.5
19 | COc1cccc2c1CC[C@H](NC(=O)c1ccc(F)cc1)C2 [Compound 7, (S)-N-(5-Methoxy-1,2,3,4-tetrahydro-naphth-2-yl)-4-fluoro-benzamide] | 6
20 | CN(C)c1cccc(C(=O)N[C@@H]2CCc3ccccc3C2)c1 [Compound 10, 3-Dimethylamino-N-(R)-1,2,3,4-tetrahydro-naphthalen-2-yl-benzamide] | 9.56
21 | CN(C)c1cccc(C(=O)N[C@H]2CCc3ccccc3C2)c1 [Compound 11, 3-Dimethylamino-N-(S)-1,2,3,4-tetrahydro-naphthalen-2-yl-benzamide] | 12.8
22 | O=C(N[C@@H]1CCc2ccccc2C1)c1ccc2[nH]cnc2c1 [Compound 23, 1H-Benzoimidazole-5-carboxylic acid N-(R)-(1,2,3,4-tetrahydro-naphthalen-2-yl)-amide] | 11.5
23 | O=C(N[C@@H]1CCc2ccccc2C1)c1ccc2[nH]nnc2c1 [Compound 25, 1H-Benzotriazole-5-carboxylic acid N-(R)-(1,2,3,4-tetrahydro-naphthalen-2-yl)-amide] | 4.55
24 | O=C(N[C@H]1CCc2ccccc2C1)c1ccc2[nH]nnc2c1 [Compound 26, 1H-Benzotriazole-5-carboxylic acid N-(S)-(1,2,3,4-tetrahydro-naphthalen-2-yl)-amide] | 15.1
25 | Cc1nc(C)c(C(=O)N[C@@H]2CCc3ccccc3C2)s1 [Compound 29, 2,4-Dimethyl-thiazole-5-carboxylic acid N-(R)-(1,2,3,4-tetrahydro-naphthalen-2-yl)-amide] | 10.5
26 | Cc1nc(C)c(C(=O)N[C@H]2CCc3ccccc3C2)s1 [Compound 30, 2,4-Dimethyl-thiazole-5-carboxylic acid N-(S)-(1,2,3,4-tetrahydro-naphthalen-2-yl)-amide] | 81.8
27 | Cc1c(C(=O)N[C@@H]2CCc3ccccc3C2)cnn1-c1ccccc1 [Compound 31, 5-Methyl-1-phenyl-1H-pyrazole-4-carboxylic acid N-(R)-(1,2,3,4-tetrahydro-naphthalen-2-yl)-amide] | 10.9
28 | Cc1c(C(=O)N[C@H]2CCc3ccccc3C2)cnn1-c1ccccc1 [Compound 32, 5-Methyl-1-phenyl-1H-pyrazole-4-carboxylic acid N-(S)-(1,2,3,4-tetrahydro-naphthalen-2-yl)-amide] | 1.13
29 | O=C(N[C@@H]1CCc2ccccc2C1)c1cnn(-c2ccc(Cl)cc2)c1C(F)(F)F [Compound 33, 1-(4-Chloro-phenyl)-5-trifluoromethyl-1H-pyrazole-4-carboxylic acid N-(R)-(1,2,3,4-tetrahydro-naphthalen-2-yl)-amide] | 7
30 | O=C(N[C@H]1CCc2ccccc2C1)c1cnn(-c2ccc(Cl)cc2)c1C(F)(F)F [Compound 34, 1-(4-Chloro-phenyl)-5-trifluoromethyl-1H-pyrazole-4-carboxylic acid N-(S)-(1,2,3,4-tetrahydro-naphthalen-2-yl)-amide] | 9.97
31 | Cc1nc(-c2ccccc2)sc1C(=O)N[C@@H]1CCc2ccccc2C1 [Compound 41, 4-Methyl-2-phenyl-thiazole-5-carboxylic acid N-(R)-(1,2,3,4-tetrahydro-naphthalen-2-yl)-amide] | 20.4
32 | Cc1nc(-c2ccccc2)sc1C(=O)N[C@H]1CCc2ccccc2C1 [Compound 42] | 16
33 | Cc1cc(C)c(C(=O)N[C@@H]2CCc3ccccc3C2)c(N)n1 [Compound 43, 2-Amino-4,6-dimethyl-N-(R)-1,2,3,4-tetrahydro-naphthalen-2-yl-nicotinamide] | 20.6
34 | Cc1nc(C(F)(F)F)c(C(=O)N[C@@H]2CCc3ccccc3C2)s1 [Compound 45, 2-Methyl-4-trifluoromethyl-thiazole-5-carboxylic acid N-(R)-(1,2,3,4-tetrahydro-naphthalen-2-yl)-amide] | 0.29
35 | Cc1nc(C(F)(F)F)c(C(=O)N[C@H]2CCc3ccccc3C2)s1 [Compound 46, 2-Methyl-4-trifluoromethyl-thiazole-5-carboxylic acid-N-(S)-(1,2,3,4-tetrahydro-naphthalen-2-yl)-amide] | 0.41
36 | O=C(N[C@@H]1CCc2ccccc2C1)c1cc2sccc2nc1C(F)(F)F [Compound 47, 5-Trifluoromethyl-thieno[3,2-b]pyridine-6-carboxylic acid-N-(R)-(1,2,3,4-tetrahydro-naphthalen-2-yl)-amide] | 35.2
37 | O=C(N[C@@H]1CCc2ccccc2C1)c1ccc2cc[nH]c2c1 [Compound 48, 1H-Indole-6-carboxylic acid N-(R)-(1,2,3,4-tetrahydro-naphthalen-2-yl)-amide] | 15.6
38 | O=C(N[C@@H]1CCc2ccccc2C1)c1ccc(C(F)(F)F)nc1 [Compound 50, N-(R)-1,2,3,4-Tetrahydro-naphthalen-2-yl-6-trifluoromethyl-nicotinamide] | 24.6
39 | O=C(N[C@H]1CCc2ccccc2C1)c1ccc(C(F)(F)F)nc1 [Compound 51, N-(S)-1,2,3,4-Tetrahydro-naphthalen-2-yl-6-trifluoromethyl-nicotinamide] | 1.6
40 | Cc1nc2cc(C(=O)N[C@@H]3CCc4ccccc4C3)ccc2[nH]1 [Compound 52, 2-Methyl-1H-benzoimidazole-5-carboxylic acid N-(R)-(1,2,3,4-tetrahydro-naphthalen-2-yl)-amide] | 24.4
41 | COc1ccc(-n2ncc(C(=O)N[C@@H]3CCc4ccccc4C3)c2C)cc1 [Compound 60, 1-(4-Methoxy-phenyl)-5-methyl-1H-pyrazole-4-carboxylic acid N-(R)-(1,2,3,4-tetrahydro-naphthalen-2-yl)-amide] | 4.12
